{"source": "patent US20060167098A1", "about": "“Method for the treatment of diseases linked to an accumulation of triglycerides and cholesterol” (Institut National De La Sante ET De LA Recherche Medicale …, priority 2003, published 2006)", "type_in_all_cases": "in vivo", "key": {"[1]": {"assay": "Liver triglycerides in ob/ob mice, 6 weeks", "conditions": "100 mg/kg/day 6 weeks, fasted 48 h", "description": "Total lipids and triglycerides in the liver of animals were assessed according to a procedure partially reported by (Letteron P., Fromenty B., Terris B., Degott C., Pessayre D., 1996, J. Hepatol. 24 : 200-208). Briefly, after killing of the animals, livers were removed and homogenized in sterile water. Hepatic lipids were thus extracted by a mixture of chloroform and methanol (2/1; v/v). After removal of the aqueous phase, the organic phase (chloroform containing the lipids) was evaporated and the amount of lipids was determined by gravimetry. Lipids were subsequently resuspended in isopropanol (final concentration, ca. 10 mg/mL). After removal of the phopholipids by using aluminum hydroxide hydrate, triglycerides were determined colorimetrically by using periodate and the Nash's reagent (containing acetylacetone, ammonium acetate and isopropanol). The reaction generates diacetyldihydrolutidine which is assayed by spectrophotometry (λ=410 nm).\nLiver triglycerides were assessed in ob/ob mice fed with a standard diet and receiving or not of 100 mg/kg/day of β-aminoisobutyric acid (BAIBA) in the drinking water during 6 weeks. Mice were 10 weeks old at the beginning of the experiment. These animals (7 controls and 10 treated with BAIBA) were different from those used for the determination of body fat by DEXA in the fed state (see above, paragraph I-d). At the end of the 6 weeks of treatment mice were submitted to a 48-hour period of fast At the end of this fasting period mice were killed for assessment of liver triglycerides. […] Indeed, liver triglycerides were reduced by 16 and 12%, respectively when the values were expressed as mg/whole liver or as mg/gram of lipids."}, "[2]": {"assay": "Plasma glucose and insulin in obese ob/ob mice (10 to 12-weeks old), 6 weeks", "description": "Plasma glucose was measured on an automatic analyser (Synchron LX20 from Beckman Coulter) with a commercial kit (kit n°472500 from Beckman).\nPlasma insulin, adiponectin and leptin were measured by radioimmunoassay (RIA). Insulin was measured with the Insulin-CT kit from Cis Bio International (Gif-sur-Yvette, France), whereas plasma leptin and adiponectin were assessed with kits from Linco Research Inc. (St Charles, Mo.). Leptin was not measured in ob/ob mice since these animals are genetically leptin-deficient (Friedman J. M., Halaas J. L., 1998, Nature 395: 763-770). Results regarding insulin were expressed as recommended by kit manufacturer.\nIn obese ob/ob mice (10 to 12-weeks old) treated with 100 mg/kg/d of β-aminoisobutyric acid for 6 weeks and fasted for the last 48 hours, there was a trend toward lower plasma levels of glucose and insulin. Indeed, plasma glucose was 11.1±1.4 and 9.0±0.9 mmol/L, respectively in control ob/ob mice (n=6) and mice treated with β-aminoisobutyric acid (n=8). Plasma insulin was 37±19 and 24±6 μU/ml, respectively in control mice (n=4) and mice treated with β-aminoisobutyric acid (n=5). […] Indeed, insulin was 83±13 and 64±7 μU/ml, respectively in control mice (n=5) and mice treated with β-aminoisobutyric acid (n=5)."}, "[3]": {"assay": "Plasma lipids in very young ob/ob mice", "conditions": "very young ob/ob mice (6 weeks at the beginning)", "description": "(§1) Plasma lipids (triglycerides, total cholesterol, phospholipids) were measured on an automatic analyser (Hitachi 717®). The commercial kits used to assess triglycerides, total cholesterol and phospholipids on this analyser were all from bioMérieux (references 61238, 61219 and 61491, respectively). Plasma non esterified fatty acids (NEFA) were assessed by using a commercial kit (Wako, reference 994-75409). Hepatic and plasma lipids were performed at the end of six weeks of treatment in animals that have been fasted for 48 hours. Triglycerides and HDL-cholesterol were also assessed after 2 months (in the fed state) or after 4 months of treatment (after an overnight fast).\nAccordingly, plasma triglycerides were 1.35 and 1.39 mmol/L in ob/ob mice in the present study, whereas much higher levels (1.96 mmol/L) were found in Swiss mice fed with the western diet (see above). Thus, it remains possible that the beneficial effects of BAIBA on plasma lipids are more pronounced when lipid levels are above a certain threshold. In keeping with this notion, BAIBA reduced by 22% plasma triglycerides in mice fed with the western diet (FIG. 6)."}, "[4]": {"assay": "Plasma HDL-cholesterol and triglycerides in ob/ob mice during a 4-month treatment", "description": "as §1\nPlasma HDL-cholesterol and alanine aminotransferase (ALT) were measured on an automatic analyser (Olympus AU400®) with commercial kits (Olympus Diagnostica GmbH, references OSR6187 and OSR6107, respectively).\nIn this series of experiments, plasma lipids, and especially HDL-cholesterol were assessed in ob/ob mice during a 4-month period of treatment. Mice were fed with standard diet. Ob/ob mice were treated for 4 months with β-aminoisobutyric acid, administered either at the usual dose (100 mg/kg/day) or at a higher dose (500 mg/kg/day). After two months, measurements were done in the fed state, while at the end of the treatment (i.e. after 4 months) plasma parameters were assessed after a overnight fasting period (i.e. 15 hours). One mice in the control group died between the third and fourth month of treatment.\nThe number of mice at the end of the experiment was 6,7 and 8, respectively in the control group and the groups treated with 100 and 500 mg/kg/day of β-aminoisobutyric acid. It is noteworthy that the animals studied in this experiment are the same than those cholesterol. Indeed, HDL-cholesterol was 3.26±0.33, 3.45±0.31 and 3.64±0.31 mmol/L, respectively in control mice and mice treated with 100 and 500 mg/kg/day of β-aminoisobutyric acid. Plasma triglycerides tended to be decreased in treated mice. Triglycerides were indeed 1.37±0.13, 1.09±0.06 and 1.25±0.17 mmol/L, respectively in control mice and mice treated with 100 and 500 mg/kg/day of β-aminoisobutyric acid."}, "[5]": {"conditions": "100 mg/kg/d 6 weeks, ob/ob 10 to 12-weeks old, fasted 48 hours"}, "[6]": {"conditions": "obese mice, standard diet, 6 weeks"}, "[7]": {"conditions": "100 mg/kg/day, after 4 months, fasted state"}, "[8]": {"conditions": "100 mg/kg/day, first time point (two months, fed state)"}, "[9]": {"conditions": "500 mg/kg/day, after 4 months, fasted state"}, "[10]": {"conditions": "500 mg/kg/day, first time point (two months, fed state)"}}, "data": [{"smiles": "CC(CN)C(=O)O", "note": "(racemic) [BAIBA, D,L-β-Aminoisobutyric acid]", "values": [{"measurement": "reduction of liver triglycerides (values as mg/gram of lipids)", "setting": "[1]", "value": 12, "unit": "%"}, {"measurement": "reduction of liver triglycerides (values as mg/whole liver)", "setting": "[1]", "value": 16, "unit": "%"}, {"measurement": "liver triglycerides", "setting": "[1]; p<0.01", "value": "625±14 mg/g of lipids"}, {"measurement": "plasma glucose", "setting": "[2]; [5]", "value": "9.0 ± 0.9", "unit": "mmol/L"}, {"measurement": "plasma insulin", "setting": "[2]; [5]", "value": "24±6", "unit": "μU/ml"}, {"measurement": "plasma insulin", "setting": "[2]; 100 mg/kg/d 6 weeks, ob/ob 10 to 12-weeks old, fed state", "value": "64±7", "unit": "μU/ml"}, {"measurement": "decrease of the glucose plasma level", "setting": "[2]; [6]", "value": "around 20%"}, {"measurement": "decrease of the insulin plasma level", "setting": "[2]; [6]", "value": "around 35%"}, {"measurement": "plasma phospholipids", "setting": "[3]", "value": "4.35 ± 0.11", "unit": "mmol/L"}, {"measurement": "plasma total cholesterol", "setting": "[3]", "value": "4.96 ± 0.15", "unit": "mmol/L"}, {"measurement": "plasma triglycerides", "setting": "[3]", "value": "1.07 ± 0.03", "unit": "mmol/L"}, {"measurement": "reduction of plasma phospholipids", "setting": "[3]", "value": 4, "unit": "%"}, {"measurement": "reduction of total cholesterol", "setting": "[3]", "value": 5, "unit": "%"}, {"measurement": "HDL-cholesterol", "setting": "[4]; [7]", "value": "4.01 ± 0.30", "unit": "mmol/L"}, {"measurement": "plasma triglycerides", "setting": "[4]; [7]", "value": "1.34 ± 0.08", "unit": "mmol/L"}, {"measurement": "HDL-cholesterol", "setting": "[4]; [8]", "value": "3.45 ± 0.31", "unit": "mmol/L"}, {"measurement": "plasma triglycerides", "setting": "[4]; [8]", "value": "1.09 ± 0.06", "unit": "mmol/L"}, {"measurement": "HDL-cholesterol", "setting": "[4]; [9]", "value": "3.98 ± 0.31", "unit": "mmol/L"}, {"measurement": "plasma triglycerides", "setting": "[4]; [9]", "value": "1.26 ± 0.07", "unit": "mmol/L"}, {"measurement": "HDL-cholesterol", "setting": "[4]; [10]", "value": "3.64 ± 0.31", "unit": "mmol/L"}, {"measurement": "plasma triglycerides", "setting": "[4]; [10]", "value": "1.25 ± 0.17", "unit": "mmol/L"}]}]}
